The test system of data set [1] is voltage-sensitive calcium channel. As to conditions: cited from earlier work.
For a further data set, the system named is NMDA receptor. As to conditions: cited from earlier work.
Data set [2] deals with Cultures of Dissociated Neonatal Rat Cerebellum. The experiment in a line: Reversal of NMDA Induced Cell Death in cultures of dissociated neonatal rat cerebellum. As to conditions: for PERCENT PROTECTION: cell survival minus the NMDA effect (30%). The class given is cell-based. Here is the method: (§1) The cerebellum was aseptically dissociated from 6 or 7-day old rat pups and placed in a 15 ml sterile plastic conical tube containing 3 ml of Dulbecco's modified Eagle's medium (DMEM) with a high glucose concentration ([…]) and 2 mM (v/v) L-glutamine and an antibiotic antimitotic mixture. The cerebella were then dissociated after 20-25 passages through a sterile 13 gauge, 10 cm long stainless steel needle attached to a 5 ml syringe with an inserted 45 micrometer pore nylon sieve. The dissociated cells were centrifuged at 200 g for 5 minutes.
Cells were plated at a density of 200/mm^2 on poly-L-lysine coated surfaces. […] The plated cells were covered with enriched medium and incubated at 37° C. in an atmosphere of 5% CO2 in air and 97% humidity. […] Each test compound was tested in duplicate. Toxic-dose response was determined for each compound over a range from 0.005-1000 micromole. Four groups were run in each set of experiments;
I. Control, consisting of enriched media alone,
II. N-methyl-D-aspartate (NMDA, 1 mM for 3 hours) as the cytotoxic challenge,
III. Test compound plus NMDA, and
IV. Positive control, spermine, spermidine or putrescine (0.01 micromoles) plus NMDA.
Surviving cells in Culture are measured relative to control (100%) as described above. Percent protection is the Cell Survival for the test compound minus the NMDA effect. […] The Effective Protection was calculated as the percent of the Percent Protection (X) divided by the maximal protection value (e.g. X×100/70).

The nature of a further data set: In Vitro Cell Toxicity. As to conditions: rat, cerebellum cell culture. How it is done: as §1, with “minutes. […] Cell viability was determined by the tryptan blue exclusion test.” for “minutes.”
Cells were plated at a density of 200/mm^2 on poly-L-lysine coated surfaces. Poly-L-lysine coated glass coverslips were prepared at least one hour in advance of plating by immersing sterile coverslips in sterile distilled water solution containing 15 microgram/ml poly-L-lysine, and washing in sterile water just prior. to use. […] After three days in culture, the media was replaced with media containing the desired test compound. Each test compound was tested in duplicate. Toxic-dose response was determined for each compound over a range from 0.005-1000 micromole. Four groups were run in each set of experiments;
Nerve cell survival was evaluated by phase contrast microscopy and tryptan blue staining after 24 hours.
Toxic dose-response curves were compiled using the protocol described above.

Data set [3] concerns pyramidal neurons throughout the CA1 layer of the anterior hippocampus. In words: Global Brain Ischemia In Gerbils. The class given is in vivo, mongolian gerbils. Particulars: Meriones unguiculatus, Pyramidal neuron, 336 h, read-out: PERCENT PROTECTION; for responders at 1 mg/kg: 1.0 mg/kg ip. Here is the method: Male mongolian gerbils, aged 2.5-5 months, housed 4-8 in a cage, were supplied freely with food and water and maintained at 24° C. with a 12 hour day/night cycle.
For surgery the animals were anesthetized with halothane (1.5% in 100% O2) and the common carotid arteries exposed bilaterally through a midline ventral neck incision. Each artery was clamped for 5 minutes with aneurysm clips to produce global brain ischemia. The anesthesia was discontinued upon clamping. After 5 minutes the clamps were removed and the wound closed with skin clips.
For treatment, the test compound or vehicle was injected intra-peritoneally(ip) in a volume of 50 microlitres of solvent per 10 g body weight. The first injection was given two minutes after clamp removal, and thereafter daily for the next 2 post-operative days (total of 3 injections).
Seven groups each of 4-8 animals were compared:
I. Control; (sham- or unoperated and saline treated),
II. Vehicle treated, unoperated (when solvent is other than saline),
III. Ischemia--untreated or saline treated),
IV. Ischemia--vehicle treated (when solvent is other than saline),
V. Ischemia--Test compound treated, one sub-group per concentration tested,
VI. Ischemia and pentobarbital (40 mg/kg) as positive control).
Analysis of neuronal damage was performed 14 days post-ischemia by counting pyramidal neurons throughout the CA1 layer of the anterior hippocampus in […] thick (paraffin) coronal brain sections stained with hematoxylin and erosin.
Percent Protection values represent the fraction of hippocampi protected from ischemia in a group of animals treated with the stated dose of compound.

Data set [4] relates to ischemia induced nerve cell death. Particulars: gerbils; Gilad G et al.; cited from earlier work.
Setting [5] is: positive control, 0.01 micromoles + NMDA.
The mark [6] stands for this setting: ip, 10.0 mg/kg ip, 3 daily injections, 14 days post-ischemia, fraction of hippocampi protected.
[7] abbreviates: ip, 3 daily injections, 14 days post-ischemia, fraction of hippocampi protected.

Like-named read-outs stand apart in the source and are kept apart here.

With `N=C(N)NCCCC(N)C(=O)NCCCNCCCN` (centres unmarked) [SFTX-33], the “voltage-sensitive calcium channel blocking” value in data set [1] is given as “voltage-sensitive calcium channel blockers”. The “EAA antagonism / PCP site of NMDA receptor” value with NMDA receptor is reported as “EAA antagonists capable of binding at the PCP site on the NMDA receptor”.
As for `NCCCNCCCCNCCCN` [Spermine, spermine, reference compound], the “PERCENT PROTECTION” value in data set [2] (setting [5]) is 38%. Also, half-maximal cytotoxicity in “In Vitro Cell Toxicity” (CC50 at 24 h) was put at 2 µM. In addition, in data set [3] (ip), the responders at 10 mg/kg is 60%. In data set [4], the “protecting against ischemia induced nerve cell death” value (shortened to “protecting”) is on record as “activity”.
`NCCCCNCCCN` [Spermidine, spermidine, reference compound]: the viability at 0.01 µM in data set [2] (Rattus norvegicus, positive control, 0.01 micromoles + NMDA (1 mM, 3 hours), 24 hours, read-out: SURVIVING CELL IN CULTURE (relative to control, 100%)) worked out at 78%. The “PERCENT PROTECTION” value in data set [2] (setting [5]) is given as 48%. In “In Vitro Cell Toxicity”, this compound came in with a CC50 at 24 h of 2 µM. In addition, the responders at 10 mg/kg in data set [3] (setting [6]) came to 42%. In addition, the “protecting” value in data set [4] is recorded as “activity”.
For `NCCCCN` [Putrescine, putrescine, reference compound], the “PERCENT PROTECTION” value in data set [2] (setting [5]) worked out at 0%. Besides, the CC50 at 24 h in the data set “In Vitro Cell Toxicity” came to 300 µM. Moreover, the responders at 10 mg/kg in data set [3] (10.0 mg/kg ip, 3 daily injections, 14 days post-ischemia, fraction of hippocampi protected) was found to be 41%. In addition, the “protecting” value in data set [4] is given as “activity”.
For the compound `NCCCCNC1CCc2ccccc21` (centres unmarked) [Compound 2710], the “PERCENT PROTECTION” value in data set [2] (0.100 μM + NMDA) was 42%; in data set [2] (1.000 μM + NMDA), 40%. For the same compound, the viability at 0.1 µM in data set [2] (Rattus norvegicus, 0.100 μM + NMDA (1 mM, 3 hours), 24 hours, read-out: SURVIVING CELL IN CULTURE (relative to control, 100%)) worked out at 72%. The viability at 1 µM in data set [2] (Rattus norvegicus, 1.000 μM + NMDA (1 mM, 3 hours), 24 hours, read-out: SURVIVING CELL IN CULTURE (relative to control, 100%)) came out at 70%. The same compound yielded a CC50 at 24 h in the data set “In Vitro Cell Toxicity” of 30 µM. In addition, the responders at 1 mg/kg in data set [3] (setting [7]) came to 25%. Moreover, the responders at 10 mg/kg in data set [3] (setting [6]) worked out at 37%.
As for `NCCCCN(CCCN)C1CCc2ccccc21` (centres unmarked) [Compound 2722, N-(4-amino-n-butyl)-N-(3-amino-n-propyl)-1-aminoindan], the “PERCENT PROTECTION” value in data set [2] (0.005 μM + NMDA) came out at 85%; in data set [2] (0.010 μM + NMDA), 57%. Moreover, the viability at 0.005 µM in data set [2] (Rattus norvegicus, 0.005 μM + NMDA (1 mM, 3 hours), 24 hours, read-out: SURVIVING CELL IN CULTURE (relative to control, 100%)) worked out at 115%. Also, the viability at 0.01 µM in data set [2] (Rattus norvegicus, 0.010 μM + NMDA (1 mM, 3 hours), 24 hours, read-out: SURVIVING CELL IN CULTURE (relative to control, 100%)) was 87%. For the same compound, the CC50 at 24 h in “In Vitro Cell Toxicity” was determined as 20 µM. Besides, the responders at 1 mg/kg in data set [3] (setting [7]) worked out at 50%. The responders at 10 mg/kg in data set [3] (setting [6]) is 25%.

These data come from patent US5646188A, “Polyamine derivatives of 1-aminoindan” (priority 1995, dated 1997).
